Data reported in patent publication EP1401829B1, “NOVEL HETEROCYCLIC ANTIBACTERIAL COMPOUNDS” (Microbiotix, Inc., priority 2001, dated 2002).
Values after ≈ are worked out from the molar mass of the structure shown. Where two headings read alike, the source gives them in different places. Marks after values point to notes of the source that are not given here.

Columns and labels:
[1] = system: MRSA1132; experiment: MIC against clinically relevant strains; assay type: cell-based; settings: Staphylococcus aureus; methicillin resistant S. aureus strain
Method: (§1) The following methods were used to characterize representative compounds. Minimal Inhibitory Concentration (MIC) determinations. MIC values were determined in 96 well plates, with bacterial growth monitored at OD 600 nm in 200µl following an initial bacterial seeding at approximately 1x10^5 colony forming units (CFU)/ml. Each drug is evaluated at five concentrations, with five data points at each dilution. MIC values (µg/ml) were determined against actively growing cultures in Heart-Brain Infusion (HBI) medium. Cell growth in cultures supplemented with a test compound was calculated as a percent of control at OD 600 nm after 16 to 18 hours at 37°C. This plate format conserves test compound and provides precise, quantitative data with low standard deviation determinations. Polymerase IIIC (Pol IIIC) assay. DNA polymerase activity (or inhibition thereof) was measured in a 96-well plate format. B. subtilis Pol IIIC was isolated as described by Hammond and Brown (Protein Expr. Purif., 3: 65-70 (1992)). Each 25 µl assay contained 30 mM Tris, pH 7.5, 10 mM magnesium acetate, 4 mM dithiothreitol, 20% glycerol, with 25 µM dATP, dCTP, dGTP and 10 µM dTTP (^3H-labelled at 1.44 Ci/mmole) and 0.4 mg/ml activated calf thymus DNA as substrates, as described previously (see Barnes et al, op. cit). Assays were initiated by the addition of 0.025 to 0.06 units of enzyme 1 unit is the amount required to incorporate 250 pmoles of [^3H] dTMP in a standard assay), incubated for 10 minutes at 30°C and terminated by the addition of 200 µl of cold 10% trichloroacetic acid (TCA),10 mM sodium pyrophosphate. Precipitated labeled DNA was collected on glass fiber filter plates, washed, dried, and counted in a liquid scintillation counter. Determination of Ki values. DNA polymerase activity was measured in a 96-well plate format in the absence of dGTP or dATP, depending on the structure of the test compound. Each 25 µl assay contained 30 mM Tris, pH 7.5, 10 mM magnesium acetate, 4 mM dithiothreitol, 20% glycerol, with 25 µM dATP, dCTP, and 10 µM dTTP (^3H-labelled at 1.44 Ci/mmole) and 0.4 mg/ml activated calf thymus DNA as substrates, as described previously. To each well were added 2 µl of compound solution to give final concentrations ranging from 20 - 0.027 µg/ml in the assay. Assays were initiated by the addition of 0.025 to 0.06 units of enzyme (1 unit is the amount required to incorporate 250 pmoles of [^3H] dTMP in a standard assay), incubated for 10 minutes at 30 °C and terminated by the addition of 200 µl of cold 10% trichloroacetic acid, 10 mM sodium pyrophosphate. Precipitated labeled DNA was collected on glass fiber filter plates, washed, dried, and counted in a liquid scintillation counter. Ki is the concentration of test compound that reduces the control polymerase IIIC activity by 50 percent.
(§2) Compounds were also tested for antibacterial activity against certain clinically relevant strains, e.g., methicillin sensitive (MSSA) and methicillin resistant (MRSA) strains of Staphylococcus aureus.

[2] = system: MRSA1094; experiment: MIC against clinically relevant strains; assay type: cell-based; settings: Staphylococcus aureus; methicillin resistant S. aureus strain
Method: as §1, §2

[3] = system: MSSA108; experiment: MIC against clinically relevant strains; assay type: cell-based; settings: Staphylococcus aureus; methicillin sensitive S. aureus strain
Method: as §1, §2

[4] = system: MRSA 1123; experiment: MIC against clinically relevant strains; assay type: cell-based; settings: Staphylococcus aureus, methicillin resistant S. aureus strain
Method: as §1, §2

[5] = system: S.aureus (Smith); experiment: Minimal Inhibitory Concentration (MIC) determination, 96 well plates; assay type: cell-based, Staphylococcus aureus; settings: Staphylococcus aureus
How it was run: (§3)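 Broth growth in Heart-Brain Infusion medium, seeded at about 1x10^5 CFU/ml, 16 to 18 hours at 37°C. Growth read at OD 600 nm as percent of untreated control; five concentrations per drug, five data points each, MIC reported in µg/ml.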

[6] = system: S. aureus; experiment: as above; assay type: cell-based, Staphylococcus aureus; settings: Staphylococcus aureus, read-out: MIC (µg/ml) S. aureus
How it was run: (§4)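 Cultures seeded at approximately 1x10^5 CFU/ml in Heart-Brain Infusion medium were exposed to five compound concentrations, five data points each, for 16 to 18 hours at 37°C. Growth at OD 600 nm was expressed as percent of control, and MIC values are given in µg/ml.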

[7] = system: E. fecium; experiment: as above; assay type: cell-based, Enterococcus fecium; settings: Enterococcus; HBI medium, 16 to 18 hours at 37°C; read-out: MIC (µg/ml) E. fecium
How it was run: as §3

[8] = system: E. coli; experiment: as above; assay type: cell-based, Escherichia coli; settings: Escherichia coli; HBI medium, 16 to 18 hours at 37°C; read-out: MIC (µg/ml) E. coli
How it was run: as §4

[9] = system: B. subtilis; experiment: as above; assay type: cell-based, Bacillus subtilis; settings: Bacillus subtilis; HBI medium, 16 to 18 hours at 37°C; read-out: MIC (µg/ml) B. subtilis
How it was run: as §3

[10] = molecular target: T1, B. subtilis Pol IIIC (Bacillus subtilis, UniProt P13267); experiment: Polymerase IIIC (Pol IIIC) assay, determination of Ki values; assay type: biochemical; settings: assay in absence of dGTP or dATP, Ki is the concentration that reduces control polymerase IIIC activity by 50 percent; for Ki: Ki (µM) Pol IIIC
T1 construct: made in house
T1 sequence (P13267 whole entry): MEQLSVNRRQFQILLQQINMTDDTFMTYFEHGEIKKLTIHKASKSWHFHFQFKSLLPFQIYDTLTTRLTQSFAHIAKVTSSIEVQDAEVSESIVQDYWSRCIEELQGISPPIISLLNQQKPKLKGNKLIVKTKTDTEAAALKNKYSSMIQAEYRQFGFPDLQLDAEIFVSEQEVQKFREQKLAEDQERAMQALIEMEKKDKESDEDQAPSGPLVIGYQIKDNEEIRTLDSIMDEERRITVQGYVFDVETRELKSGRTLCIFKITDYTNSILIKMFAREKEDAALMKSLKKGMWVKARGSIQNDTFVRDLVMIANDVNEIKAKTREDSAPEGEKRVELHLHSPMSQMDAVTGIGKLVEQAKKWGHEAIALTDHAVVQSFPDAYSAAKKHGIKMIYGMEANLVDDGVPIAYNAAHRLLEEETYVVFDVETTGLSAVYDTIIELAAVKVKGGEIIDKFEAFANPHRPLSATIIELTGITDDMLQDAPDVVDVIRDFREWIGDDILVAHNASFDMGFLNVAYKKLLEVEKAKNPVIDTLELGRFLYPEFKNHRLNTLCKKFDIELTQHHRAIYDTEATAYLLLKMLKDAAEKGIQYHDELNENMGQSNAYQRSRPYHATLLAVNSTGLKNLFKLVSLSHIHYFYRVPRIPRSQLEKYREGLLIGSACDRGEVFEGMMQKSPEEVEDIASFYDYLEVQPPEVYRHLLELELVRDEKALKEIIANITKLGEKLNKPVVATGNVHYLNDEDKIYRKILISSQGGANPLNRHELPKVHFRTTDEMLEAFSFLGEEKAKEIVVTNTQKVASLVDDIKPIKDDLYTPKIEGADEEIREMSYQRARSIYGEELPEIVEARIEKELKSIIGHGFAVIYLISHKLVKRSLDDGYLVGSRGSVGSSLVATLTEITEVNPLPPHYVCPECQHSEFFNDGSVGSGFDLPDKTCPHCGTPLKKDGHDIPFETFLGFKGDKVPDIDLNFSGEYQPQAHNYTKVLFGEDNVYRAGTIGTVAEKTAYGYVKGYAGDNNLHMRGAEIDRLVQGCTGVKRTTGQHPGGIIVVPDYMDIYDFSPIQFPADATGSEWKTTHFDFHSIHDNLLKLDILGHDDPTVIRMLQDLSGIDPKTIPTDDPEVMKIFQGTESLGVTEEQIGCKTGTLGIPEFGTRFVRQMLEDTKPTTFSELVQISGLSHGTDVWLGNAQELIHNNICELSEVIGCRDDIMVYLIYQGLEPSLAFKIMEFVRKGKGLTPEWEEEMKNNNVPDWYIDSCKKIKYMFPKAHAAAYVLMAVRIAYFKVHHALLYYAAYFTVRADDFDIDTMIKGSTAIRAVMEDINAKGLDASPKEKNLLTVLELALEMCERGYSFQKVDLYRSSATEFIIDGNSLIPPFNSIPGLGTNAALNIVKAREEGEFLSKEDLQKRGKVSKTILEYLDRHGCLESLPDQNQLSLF
How it was run: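 Isolated B. subtilis Pol IIIC (0.025–0.06 units) run 10 min at 30°C in 30 mM Tris pH 7.5, 10 mM Mg acetate, 4 mM DTT, 20% glycerol. Substrates were 0.4 mg/ml activated calf thymus DNA, 25 µM dNTPs and 10 µM [3H]dTTP, with dGTP or dATP omitted per compound structure.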

[11] = system: E. fecalis; experiment: Minimal Inhibitory Concentration (MIC) determination, 96 well plates; assay type: cell-based, Enterococcus fecalis; settings: Enterococcus; HBI medium, 16 to 18 hours at 37°C; read-out: MIC (µg/ml) E. fecalis
How it was run: as §3

[12] = system: VRE 700802; experiment: In vivo efficacy of Compound 70 in mouse models; parameters: species or system Enterococcus faecalis; settings: mice, 3x10^8 CFU/mouse + 5% Mucin; positive control, 100mg/kg, t=0
Method: (§5) Swiss Webster mice, ca. 20 g each, were infected with Staphylococcus aureus (Smith strain) by the intraperitoneal route. Test compounds (2, 4, 5, 6, 7, 8, 10, 12) were dissolved in 10% dimethylsulfoxide in peanut oil to a concentration of 2 mg/ml. Vancomycin was used as positive control drug (i.e., protection from lethal infection). Fifteen minutes after infection, test compounds, vancomycin, or vehicle alone were given intraperitoneally to groups of five mice each. Animals were monitored for three days, and the number of mice surviving was tabulated for each treatment.
(§6) Using the same basic procedure as described above, the in vivo efficacy of Compound 70 was also evaluated at various doses in mice infected with S. aureaus (Smith), MRSA 1094, Enterococcus faecalis, or vancomycin-resistant Enterococcus faecalis strain VRE 700802. […] Negative controls were mice infected that received no treatment. Mucin was employed as an adjuvant to facilitate bacterial infection in mice, where indicated.

[13] = system: MRSA 1094; experiment: In vivo efficacy of Compound 70 in mouse models; parameters: species or system Staphylococcus aureus; settings: mice, 10^7 CFU/mouse + 5% Mucin; positive control, 30mg/kg, t=0
Method: as §5, §6

[14] = system: Staphylococcus aureus (Smith); experiment: In vivo efficacy of Compound 70 in mouse models; settings: mice, 10^8 CFU/mouse; positive control, 30mg/kg, t=0
Method: as §5, §6

[15] = system: Enterococcus faecalis (ATCC 29212); experiment: In vivo efficacy of Compound 70 in mouse models; settings: mice, 3x10^7 CFU/mouse + 5% Mucin; positive control, 100mg/kg, t=0
Method: as §5, §6

[16] = HBI medium, 16 to 18 hours at 37°C, read-out: MIC (µg/ml) S.aureus (Smith)
[17] = table of MSSA/MRSA strains, read-out: MIC (µg/ml) S. aureus (Smith)
[18] = HBI medium, 16 to 18 hours at 37°C

| Compound | MIC [1] [µg/mL] | MIC [2] [µg/mL] | MIC [3] [µg/mL] | MIC [4] [µg/mL] | MIC [5, 16] [µg/mL] | MIC [5, 17] [µg/mL] | MIC [6, 18] [µg/mL] | MIC ([6]; table of MSSA/MRSA strains) [µg/mL] | MIC [7] [µg/mL] | MIC [8] [µg/mL] | MIC [9] [µg/mL] | Ki [10] [µM] | MIC [11] [µg/mL] | Ki (µM) Pol IIIC [10] | % Survival at 72 hours [12] | % Survival at 72 hours [13] | % Survival at 72 hours [14] | % Survival at 72 hours [15] |
| --- | --- | --- | --- | --- | --- | --- | --- | --- | --- | --- | --- | --- | --- | --- | --- | --- | --- | --- |
| CCc1cc(Nc2cc(=O)n(CCCCN3CCN(c4c(F)cc5c(=O)c(C(=O)O)cn(CC)c5c4Cl)CC3)c(=O)[nH]2)ccc1C [Compound 5, 3-{4-[1-(1-ethyl-3-carboxy-4-oxo-6-fluoro-8-chloro-7-quinolyl)-4-piperazinyl]butyl}-6-(3-ethyl-4-methylanilino)uracil] | 0.625 (≈ 0.957 µM) | 0.625 (≈ 0.957 µM) | 0.625 (≈ 0.957 µM) | 0.625 (≈ 0.957 µM) | 0.156 (≈ 0.239 µM) | 0.156 (≈ 0.239 µM) | 0.156 (≈ 0.239 µM) | 0.156 (≈ 0.239 µM) | 2.5 (≈ 3.83 µM) | 10 (≈ 15.3 µM) | 0.078 (≈ 0.119 µM) | 0.016 | 1.25 (≈ 1.91 µM) | – | – | – | – | – |
| CCc1cc(Nc2cc(=O)n(CCCCN3CCN(c4nc5c(cc4F)c(=O)c(C(=O)O)cn5CC)CC3)c(=O)[nH]2)ccc1C [Compound 6, 3-{4-[1-(1-ethyl-3-carboxy-4-oxo-6-fluoro-8-aza-7-quinolyl)-4-piperazinyl]butyl}-6-(3-ethyl-4-methylanilino)uracil] | 0.625 (≈ 1.01 µM) | 1.25 (≈ 2.02 µM) | 0.625 (≈ 1.01 µM) | 0.625 (≈ 1.01 µM) | 0.625 (≈ 1.01 µM) | 0.625 (≈ 1.01 µM) | 0.625 (≈ 1.01 µM) | 0.625 (≈ 1.01 µM) | 1.25 (≈ 2.02 µM) | > 20 | 0.156 (≈ 0.252 µM) | 0.018 | 1.25 (≈ 2.02 µM) | – | – | – | – | – |
| CCc1cc(Nc2cc(=O)n(CCCCN3CCN(c4c(F)cc5c(=O)c(C(=O)O)cn(CC)c5c4F)CC3)c(=O)[nH]2)ccc1C [Compound 7, 3-{4-[1-(1-ethyl-3-carboxy-4-oxo-6,8-difluoro-7-quinolyl)-4-piperazinyl]butyl}-6-(3-ethyl-4-methylanilino)uracil] | 0.625 (≈ 0.982 µM) | 0.625 (≈ 0.982 µM) | 0.313 (≈ 0.492 µM) | 0.625 (≈ 0.982 µM) | 1.25 (≈ 1.96 µM) | 0.625 (≈ 0.982 µM) | 0.625 (≈ 0.982 µM) | 0.625 (≈ 0.982 µM) | 1.25 (≈ 1.96 µM) | > 20 | 0.156 (≈ 0.245 µM) | 0.021 | 1.25 (≈ 1.96 µM) | – | – | – | – | – |
| CCc1cc(Nc2cc(=O)n(CCCCN3CCN(c4cc5c(cc4F)c(=O)c(C(=O)O)cn5-c4ccc(F)cc4F)CC3)c(=O)[nH]2)ccc1C [Compound 12, 3-{4-[1-(1-{2,4-difluorophenyl}-3-carboxy-4-oxo-6-fluoro-7-quinolyl)-4-piperazinyl]butyl}-6-(3-ethyl-4-methylanilino)uracil] | 0.625 (≈ 0.889 µM) | 0.625 (≈ 0.889 µM) | 0.625 (≈ 0.889 µM) | 1.25 (≈ 1.78 µM) | 0.313 (≈ 0.445 µM) | 0.313 (≈ 0.445 µM) | 0.313 (≈ 0.445 µM) | 0.313 (≈ 0.445 µM) | 5 (≈ 7.12 µM) | 2.5 (≈ 3.56 µM) | 0.156 (≈ 0.222 µM) | 0.018 | 2.5 (≈ 3.56 µM) | – | – | – | – | – |
| O=C(O)c1cn(C2CC2)c2cc(N3CCNCC3)c(F)cc2c1=O [cflxn, ciprofloxacin, reference compound] | – | – | – | – | 0.078 (≈ 0.235 µM) | – | 0.156 (≈ 0.471 µM) | – | – | 0.078 (≈ 0.235 µM) | 0.156 (≈ 0.471 µM) | – | – | inactive | ciprofloxacin (100mg/kg, t=0) 90% (9/10)** | – | – | – |
| CN[C@H](CC(C)C)C(=O)N[C@H]1C(=O)N[C@@H](CC(N)=O)C(=O)N[C@H]2C(=O)N[C@H]3C(=O)N[C@H](C(=O)N[C@H](C(=O)O)c4cc(O)cc(O)c4-c4cc3ccc4O)[C@H](O)c3ccc(c(Cl)c3)Oc3cc2cc(c3O[C@@H]2O[C@H](CO)[C@@H](O)[C@H](O)[C@H]2O[C@H]2C[C@](C)(N)[C@H](O)[C@H](C)O2)Oc2ccc(cc2Cl)[C@H]1O [vancomycin, reference compound] | – | – | – | – | – | – | – | – | – | – | – | – | – | – | – | 95% (19/20)** | 100% (20/20)** | vancomycin (100mg/kg, t=0) 100% (10/10)** |
